In paper PMC7712530 (Nucleosides, nucleotides & nucleic acids, 2015):

Key:
[1] = system: MT-4 cells; test: Cytotoxicity assay; type: cell-based; details: for cytotoxicity (in words): text: toward HepG2 cells, table head and method say MT-4
[2] = system: HBV; test: Anti-HBV assay in HepG2 2.2.15 cells; type: cell-based; details: for EC50: Hepatitis B virus, HepG2 2.2.15, 144 h, read-out: EC50 anti-HBV activity
[3] = system: HBV; details: relative to entecavir 1; ref 3a; cited from earlier work

9-[Bis-O-(pivaloyoxymethyl)phosphorylmethoxy]allyl]guanine [Compound 8]
cytotoxicity (in words) [1]: cytotoxicity toward HepG2 cells was also observed

C=C(CCO)Cn1cnc2c(=O)[nH]c(N)nc21 [Compound 6, 2-Amino-9-(4-hydroxy-2-methylenebutyl)-1H-purin-6(9H)-one]
anti-HBV activity (in words) ([2]; HepG2 2.2.15 cells): neither exhibit anti-HBV activity
EC50 [2]: > 1000 nM
cytotoxicity (in words) [1]: nor display any cytotoxicity

C=C1[C@H](CO)[C@@H](O)C[C@@H]1n1cnc2c(=O)[nH]c(N)nc21 [Entecavir, entecavir, reference compound]
EC50 [2]: 0.77 nM

Nc1nc2c(ncn2[C@H]2C[C@@H](CO)[C@H](O)C2)c(=O)[nH]1 [carbocyclic dG]
potency, times less than that of entecavir (1) [3]: 10 times

CC(C)(C)C(=O)O [pivalic acid, reference compound]
concentration up to which no cytotoxicity was shown ([1]; in this assay system): > 100 µM
